Measurements from ChEMBL document CHEMBL6153077, “Design, synthesis, and anti-liver fibrosis activity of novel non-steroidal vitamin D receptor agonists based on open-ring steroid scaffold” (Eur J Med Chem, 2025).
Activity calls are given as the source filed them. The rule behind the calls is not given here.

Key:
[1] = molecular target: T1, Vitamin D3 receptor (Homo sapiens) (UniProt P11473); assay: Binding affinity to full-length VDR (unknown origin) at 1 uM by fluorescence polarization assay relative to control
T1 sequence (whole entry): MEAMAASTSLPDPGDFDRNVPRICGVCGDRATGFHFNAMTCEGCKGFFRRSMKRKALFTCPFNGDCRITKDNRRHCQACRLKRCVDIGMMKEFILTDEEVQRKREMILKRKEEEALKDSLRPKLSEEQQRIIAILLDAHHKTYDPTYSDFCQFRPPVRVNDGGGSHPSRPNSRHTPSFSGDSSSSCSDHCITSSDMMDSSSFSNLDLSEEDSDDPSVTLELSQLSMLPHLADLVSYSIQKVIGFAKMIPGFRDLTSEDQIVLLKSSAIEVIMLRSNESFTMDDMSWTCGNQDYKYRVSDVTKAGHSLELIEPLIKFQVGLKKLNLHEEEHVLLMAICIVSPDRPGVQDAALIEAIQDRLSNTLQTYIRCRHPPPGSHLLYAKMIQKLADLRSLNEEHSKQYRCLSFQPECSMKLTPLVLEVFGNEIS

LX-2 [2] = assay: Inhibition of HSC activation in TGF-beta1-treated human LX2 cells assessed as decrease in collagen-I level at 0.5 uM incubated for 24 hrs by Western blot analysis; format: functional, cell-based
LX-2 [3] = assay: Inhibition of HSC activation in TGF-beta1-treated human LX2 cells assessed as decrease in COL1A1 mRNA level at 0.5 uM incubated for 24 hrs by qPCR analysis; format: functional, cell-based
LX-2 [4] = assay: Inhibition of HSC activation in TGF-beta1-treated human LX2 cells assessed as decrease in ACTA2 mRNA level at 0.5 uM incubated for 24 hrs by qPCR analysis; format: functional, cell-based
LX-2 [5] = assay: Inhibition of HSC activation in TGF-beta1-treated human LX2 cells assessed as decrease in alpha-SMA level at 0.5 uM incubated for 24 hrs by Western blot analysis; format: functional, cell-based
[6] = molecular target: T1, Vitamin D3 receptor (Homo sapiens); assay: Agonist activity at human VDR in HEK293 cells co-expressing 3-Luc/RXRalpha assessed as transcriptional activity at 0.5 uM by dual luciferase reporter assay; format: cell-based; conditions: filed as agonist
[7] = molecular target: T1, Vitamin D3 receptor (Homo sapiens); assay: Agonist activity at VDR in human LX2 cells assessed as increase in CYP24A1 level at 0.5 uM by qRT-PCR analysis; format: cell-based; conditions: filed as agonist
Mus musculus [8] = assay: Anti-fibrotic activity in CCl4-induced hepatic fibrosis C57BL/6 mouse model assessed as decrease in Ctgf mRNA level in liver at 500 ug/kg, po administered daily for 2 weeks by qPCR analysis; format: functional, organism-based
Mus musculus [9] = assay: Anti-fibrotic activity in CCl4-induced hepatic fibrosis C57BL/6 mouse model assessed as reduction in TBA level at 500 ug/kg, po administered daily for 2 weeks; format: functional, organism-based
Mus musculus [10] = assay: Anti-fibrotic activity in CCl4-induced hepatic fibrosis C57BL/6 mouse model assessed as reduction in AST level at 500 ug/kg, po administered daily for 2 weeks; format: functional, organism-based
Mus musculus [11] = assay: Anti-fibrotic activity in CCl4-induced hepatic fibrosis C57BL/6 mouse model assessed as reduction in collagen deposition in liver at 500 ug/kg, po administered daily for 2 weeks by H and E/Masson's trichrome staining based analysis; format: functional, organism-based
Mus musculus [12] = assay: Anti-fibrotic activity in CCl4-induced hepatic fibrosis C57BL/6 mouse model assessed as reduction in hepatic lesion in liver at 500 ug/kg, po administered daily for 2 weeks by H and E/Masson's trichrome staining based analysis; format: functional, organism-based
LX-2 [13] = assay: Inhibition of HSC activation in TGF-beta1-treated human LX2 cells harboring VDR siRNA assessed as decrease in alpha-SMA level at 0.5 uM incubated for 24 hrs by Western blot analysis; format: functional, cell-based
Mus musculus [14] = assay: Anti-fibrotic activity in CCl4-induced hepatic fibrosis C57BL/6 mouse model assessed as reduction in alpha-SMA level in liver at 500 ug/kg, po administered daily for 2 weeks by immunofluorescence based analysis; format: functional, organism-based
Mus musculus [15] = assay: Anti-fibrotic activity in CCl4-induced hepatic fibrosis C57BL/6 mouse model assessed as reduction in IL-1beta level in liver at 500 ug/kg, po administered daily for 2 weeks by ELISA; format: functional, organism-based
Mus musculus [16] = assay: Anti-fibrotic activity in CCl4-induced hepatic fibrosis C57BL/6 mouse model assessed as prevention of serum calcium level elevation at 500 ug/kg, po administered daily for 2 weeks; format: functional, organism-based
Mus musculus [17] = assay: Anti-fibrotic activity in CCl4-induced hepatic fibrosis C57BL/6 mouse model assessed as reduction in ALT level at 500 ug/kg, po administered daily for 2 weeks; format: functional, organism-based
LX-2 [18] = assay: Inhibition of HSC activation in TGF-beta1-treated human LX2 cells harboring VDR siRNA assessed as decrease in collagen-I level at 0.5 uM incubated for 24 hrs by Western blot analysis; format: functional, cell-based
Mus musculus [19] = assay: Anti-fibrotic activity in CCl4-induced hepatic fibrosis C57BL/6 mouse model assessed as decrease in Fn mRNA level in liver at 500 ug/kg, po administered daily for 2 weeks by qPCR analysis; format: functional, organism-based
Mus musculus [20] = assay: Anti-fibrotic activity in CCl4-induced hepatic fibrosis C57BL/6 mouse model assessed as decrease in Timp-1 mRNA level in liver at 500 ug/kg, po administered daily for 2 weeks by qPCR analysis; format: functional, organism-based
Mus musculus [21] = assay: Anti-fibrotic activity in CCl4-induced hepatic fibrosis C57BL/6 mouse model assessed as increase in IL-10 level in liver at 500 ug/kg, po administered daily for 2 weeks by ELISA; format: functional, organism-based

CC(C)(O)CCOc1cccc2c1CCCC2OC(=O)C1=C[C@@H](O)[C@@H](O)[C@H](O)C1 (some centres undefined)
Activity ([1]; filed as agonist): 45%

CC(C)(O)CCCCOc1ccc(/C=C/C2=C[C@@H](O)[C@@H](O)[C@H](O)C2)c2c1CCCC2
Activity [1]: 21%

CCCC(OC(=O)C1=C[C@@H](O)[C@@H](O)[C@H](O)C1)c1cccc(OCCCC(C)(C)O)c1 (some centres undefined)
Activity ([1]; filed as agonist): 77%
inhibition (LX-2 [2]): Active
inhibition (LX-2 [3]): Active
inhibition (LX-2 [4]): Active
inhibition (LX-2 [5]): Active

OC(COc1ccc(/C=C/C2=C[C@@H](O)[C@@H](O)[C@H](O)C2)c2c1CCCC2)c1ccccc1 (some centres undefined)
Activity [1]: 77%
inhibition (LX-2 [2]): inactive
inhibition (LX-2 [3]): inactive
inhibition (LX-2 [4]): inactive
inhibition (LX-2 [5]): inactive

CC(C)(O)CCCn1ccc2c(/C=C/C3=C[C@@H](O)[C@@H](O)[C@H](O)C3)cccc21
Activity ([1]; filed as agonist): 71%

CCCC(O)(CCC)CCCOc1cccc2c1CCCC2OC(=O)C1=C[C@@H](O)[C@@H](O)[C@H](O)C1 (some centres undefined)
Activity [6]: Active
Activity ([1]; filed as agonist): 77%
inhibition (LX-2 [3]): Active
inhibition (LX-2 [4]): Active
Activity [7]: Active

CCC(OC(=O)C1=C[C@@H](O)[C@@H](O)[C@H](O)C1)c1cccc(OCCCC(C)(C)O)c1 (some centres undefined)
Activity ([1]; filed as agonist): 84%
inhibition (LX-2 [2]): Active
inhibition (LX-2 [3]): Active
inhibition (LX-2 [4]): Active
inhibition (LX-2 [5]): Active

CC(C)(O)CCOc1ccc(/C=C/C2=C[C@@H](O)[C@@H](O)[C@H](O)C2)c2c1CCCC2
Activity ([1]; filed as agonist): 55%

CCN(CC)C(=O)COc1ccc(/C=C/C2=C[C@@H](O)[C@@H](O)[C@H](O)C2)c2c1CCCC2
Activity ([1]; filed as agonist): 56%

CC(C)(O)COc1ccc(/C=C/C2=C[C@@H](O)[C@@H](O)[C@H](O)C2)c2c1CCCC2
Activity ([1]; filed as agonist): 72%

O=C(COc1ccc(/C=C/C2=C[C@@H](O)[C@@H](O)[C@H](O)C2)c2c1CCCC2)N1CCOCC1
Activity ([1]; filed as agonist): 45%

Cc1cc(C(C)(C)O)ccc1-c1ccc(COC(=O)C2=C[C@@H](O)[C@@H](O)[C@H](O)C2)s1
Activity ([1]; filed as agonist): 71%

O=C(COc1ccc(/C=C/C2=C[C@@H](O)[C@@H](O)[C@H](O)C2)c2c1CCCC2)c1ccccc1
Activity ([1]; filed as agonist): 72%
inhibition (LX-2 [3]): Active
inhibition (LX-2 [4]): Active
Activity [7]: Active

CC(C)(O)CCCOc1cccc(COC(=O)C2=C[C@@H](O)[C@@H](O)[C@H](O)C2)c1
Activity ([1]; filed as agonist): 49%

CCC(OC(=O)C1=C[C@@H](O)[C@@H](O)[C@H](O)C1)c1cccc(OCCCC(O)(CC)CC)c1 (some centres undefined)
Activity [6]: Active
Activity (Mus musculus [8]): Active
Activity ([1]; filed as agonist): 84%
Activity (Mus musculus [9]): Active
Activity (Mus musculus [10]): Active
Activity (Mus musculus [11]): Active
Activity (Mus musculus [12]): Active
inhibition (LX-2 [13]): inactive
inhibition (LX-2 [2]): Active
Activity (Mus musculus [14]): Active
Activity (Mus musculus [15]): Active
inhibition (LX-2 [3]): Active
Activity (Mus musculus [16]): Active
inhibition (LX-2 [4]): Active
Activity (Mus musculus [17]): Active
Activity [7]: Active
inhibition (LX-2 [18]): inactive
Activity (Mus musculus [19]): Active
inhibition (LX-2 [5]): Active
Activity (Mus musculus [20]): Active
Activity (Mus musculus [21]): Active

CCC(O)(CC)CCCCOc1ccc(C#CC2=C[C@@H](O)[C@@H](O)[C@H](O)C2)c2c1CCCC2
Activity ([1]; filed as agonist): 49%

CCCCC(OC(=O)C1=C[C@@H](O)[C@@H](O)[C@H](O)C1)c1cccc(OCCCC(C)(C)O)c1 (some centres undefined)
Activity ([1]; filed as agonist): 50%

CC(C)(O)CCCOc1ccc(C#CC2=C[C@@H](O)[C@@H](O)[C@H](O)C2)c2c1CCCC2
Activity [1]: 15%

CC(C)c1ccc(C(=O)COc2ccc(/C=C/C3=C[C@@H](O)[C@@H](O)[C@H](O)C3)c3c2CCCC3)cc1
Activity ([1]; filed as agonist): 76%

CCC(O)(CC)CCCOc1cccc2c1CCCC2OC(=O)C1=C[C@@H](O)[C@@H](O)[C@H](O)C1 (some centres undefined)
Activity ([1]; filed as agonist): 68%
